Results published in ChEMBL document CHEMBL3046208, “Natural and synthetic podolactones with potential use as natural herbicide models” (2000).
Activity calls are given as the source filed them. No cut-off for these calls is given here.

Columns and labels:
Format in all cases: functional
Lactuca sativa [1] = assay: Inhibition of germination of Lactuca sativa cv. Nigra (lettuce) at 0.1 mM after 5 days relative to untreated control
Allium cepa [2] = assay: Inhibition of root length of Allium cepa (onion) at 0.1 mM after 5 days relative to untreated control
Hordeum vulgare [3] = assay: Inhibition of root length of Hordeum vulgare (barley) at 0.1 mM after 5 days relative to untreated control; settings: 120 h
Allium cepa [4] = assay: Inhibition of germination of Allium cepa (onion) at 0.1 mM after 5 days relative to untreated control; settings: 120 h
Lactuca sativa [5] = assay: Inhibition of shoot length of Lactuca sativa cv. Nigra (lettuce) at 0.1 mM after 5 days relative to untreated control; settings: 120 h
Triticum aestivum [6] = assay: Stimulation of germination of Triticum aestivum (wheat) at 0.1 mM after 5 days relative to untreated control
Solanum lycopersicum [7] = assay: Inhibition of germination of Solanum lycopersicum (tomato) at 0.1 mM after 5 days relative to untreated control
Solanum lycopersicum [8] = assay: Stimulation of germination of Solanum lycopersicum (tomato) at 0.1 mM after 5 days relative to untreated control
Lepidium sativum [9] = assay: Stimulation of shoot length of Lepidium sativum at 0.1 mM after 5 days relative to untreated control
Solanum lycopersicum [10] = assay: Inhibition of shoot length of Solanum lycopersicum (tomato) at 0.1 mM after 5 days relative to untreated control; settings: 120 h
Hordeum vulgare [11] = assay: Stimulation of germination of Hordeum vulgare (barley) at 0.1 mM after 5 days relative to untreated control
Allium cepa [12] = assay: Inhibition of shoot length of Allium cepa (onion) at 0.1 mM after 5 days relative to untreated control; settings: 120 h
Hordeum vulgare [13] = assay: Inhibition of germination of Hordeum vulgare (barley) at 0.1 mM after 5 days relative to untreated control; settings: 120 h
Allium cepa [14] = assay: Stimulation of germination of Allium cepa (onion) at 0.1 mM after 5 days relative to untreated control
Lactuca sativa [15] = assay: Inhibition of root length of Lactuca sativa cv. Roman (lettuce) at 0.1 mM after 5 days relative to untreated control
Lactuca sativa [16] = assay: Stimulation of germination of Lactuca sativa cv. Roman (lettuce) at 0.1 mM after 5 days relative to untreated control
Triticum aestivum [17] = assay: Stimulation of shoot length of Triticum aestivum (wheat) at 0.1 mM after 5 days relative to untreated control
Solanum lycopersicum [18] = assay: Stimulation of shoot length of Solanum lycopersicum (tomato) at 0.1 mM after 5 days relative to untreated control
Hordeum vulgare [19] = assay: Stimulation of root length of Hordeum vulgare (barley) at 0.1 mM after 5 days relative to untreated control
Lactuca sativa [20] = assay: Stimulation of shoot length of Lactuca sativa cv. Nigra (lettuce) at 0.1 mM after 5 days relative to untreated control
Hordeum vulgare [21] = assay: Stimulation of shoot length of Hordeum vulgare (barley) at 0.1 mM after 5 days relative to untreated control
Solanum lycopersicum [22] = assay: Stimulation of root length of Solanum lycopersicum (tomato) at 0.1 mM after 5 days relative to untreated control
Lactuca sativa [23] = assay: Stimulation of germination of Lactuca sativa cv. Nigra (lettuce) at 0.1 mM after 5 days relative to untreated control
Lactuca sativa [24] = assay: Inhibition of shoot length of Lactuca sativa cv. Roman (lettuce) at 0.1 mM after 5 days relative to untreated control
Solanum lycopersicum [25] = assay: Stimulation of root length of Solanum lycopersicum (tomato) at 0.1 uM after 5 days relative to untreated control
Triticum aestivum [26] = assay: Inhibition of shoot length of Triticum aestivum (wheat) at 0.1 mM after 5 days relative to untreated control
Lactuca sativa [27] = assay: Stimulation of root length of Lactuca sativa cv. Roman (lettuce) at 0.1 mM after 5 days relative to untreated control
Lactuca sativa [28] = assay: Inhibition of root length of Lactuca sativa cv. Nigra (lettuce) at 0.1 mM after 5 days relative to untreated control
Lepidium sativum [29] = assay: Inhibition of germination of Lepidium sativum at 0.1 mM after 5 days relative to untreated control
Lepidium sativum [30] = assay: Stimulation of root length of Lepidium sativum at 0.1 mM after 5 days relative to untreated control
Lactuca sativa [31] = assay: Inhibition of germination of Lactuca sativa cv. Roman (lettuce) at 0.1 mM after 5 days relative to untreated control
Hordeum vulgare [32] = assay: Inhibition of shoot length of Hordeum vulgare (barley) at 0.1 mM after 5 days relative to untreated control; settings: 120 h
Allium cepa [33] = assay: Stimulation of shoot length of Allium cepa (onion) at 0.1 mM after 5 days relative to untreated control
Lactuca sativa [34] = assay: Stimulation of shoot length of Lactuca sativa cv. Roman (lettuce) at 0.1 mM after 5 days relative to untreated control
Lepidium sativum [35] = assay: Inhibition of root length of Lepidium sativum at 0.1 mM after 5 days relative to untreated control; settings: 120 h
Allium cepa [36] = assay: Stimulation of root length of Allium cepa (onion) at 0.1 mM after 5 days relative to untreated control
Triticum aestivum [37] = assay: Inhibition of germination of Triticum aestivum (wheat) at 0.1 mM after 5 days relative to untreated control
Triticum aestivum [38] = assay: Stimulation of root length of Triticum aestivum (wheat) at 0.1 mM after 5 days relative to untreated control
Triticum aestivum [39] = assay: Inhibition of root length of Triticum aestivum (wheat) at 0.1 mM after 5 days relative to untreated control
Lepidium sativum [40] = assay: Inhibition of shoot length of Lepidium sativum at 0.1 mM after 5 days relative to untreated control; settings: 120 h
Solanum lycopersicum [41] = assay: Inhibition of root length of Solanum lycopersicum (tomato) at 0.1 mM after 5 days relative to untreated control; settings: 120 h
Lactuca sativa [42] = assay: Stimulation of root length of Lactuca sativa cv. Nigra (lettuce) at 0.1 mM after 5 days relative to untreated control
Lepidium sativum [43] = assay: Stimulation of germination of Lepidium sativum at 0.1 mM after 5 days relative to untreated control
Solanum lycopersicum [44] = assay: Stimulation of root length of Solanum lycopersicum (tomato) at 1 nM after 5 days relative to untreated control
Hordeum vulgare [45] = assay: Inhibition of germination of Hordeum vulgare (barley) at 1 uM after 5 days relative to untreated control; settings: 120 h
Allium cepa [46] = assay: Inhibition of germination of Allium cepa (onion) at 10 nM after 5 days relative to untreated control; settings: 120 h

COC(=O)[C@@]1(C)CCC[C@]2(C)c3cc(=O)occ3CC[C@@H]12
inhibition at 100 µM (Lactuca sativa [1]; 120 h): < 20% | inhibition (Allium cepa [2]): inactive | inhibition at 100 µM (Hordeum vulgare [3]): 20% | inhibition at 100 µM (Allium cepa [4]): < 20% | inhibition at 100 µM (Lactuca sativa [5]): < 20% | Activity (Triticum aestivum [6]): <20% | inhibition (Solanum lycopersicum [7]): inactive | Activity (Solanum lycopersicum [8]): inactive | Activity (Lepidium sativum [9]): <20% | inhibition at 100 µM (Solanum lycopersicum [10]): < 20% | Activity (Hordeum vulgare [11]): 20% | inhibition at 100 µM (Allium cepa [12]): < 20% | inhibition at 100 µM (Hordeum vulgare [13]): 20% | Activity (Allium cepa [14]): <20% | inhibition (Lactuca sativa [15]): inactive | Activity (Lactuca sativa [16]): inactive | Activity (Triticum aestivum [17]): inactive | Activity (Solanum lycopersicum [18]): <20% | Activity (Hordeum vulgare [19]): 20% | Activity (Lactuca sativa [20]): <20% | Activity (Hordeum vulgare [21]): <20% | Activity (Solanum lycopersicum [22]): >40% | Activity (Lactuca sativa [23]): <20% | inhibition (Lactuca sativa [24]): inactive | Activity (Solanum lycopersicum [25]): 58% | inhibition (Triticum aestivum [26]): inactive | Activity (Lactuca sativa [27]): inactive | inhibition (Lactuca sativa [28]): inactive | inhibition (Lepidium sativum [29]): inactive | Activity (Lepidium sativum [30]): 20% | inhibition (Lactuca sativa [31]): inactive | inhibition at 100 µM (Hordeum vulgare [32]): < 20% | Activity (Allium cepa [33]): <20% | Activity (Lactuca sativa [34]): inactive | inhibition at 100 µM (Lepidium sativum [35]): 20% | Activity (Allium cepa [36]): inactive | inhibition at 100 µM (Triticum aestivum [37]; 120 h): < 20% | Activity (Triticum aestivum [38]): <20% | inhibition at 100 µM (Triticum aestivum [39]; 120 h): < 20% | inhibition at 100 µM (Lepidium sativum [40]): < 20% | inhibition at 100 µM (Solanum lycopersicum [41]): > 40% | Activity (Lactuca sativa [42]): inactive | Activity (Lepidium sativum [43]): inactive

COC(=O)[C@@]1(C)CCC[C@]2(C)C3=C(CC[C@@H]12)COC(=O)C3
inhibition (Lactuca sativa [1]): inactive | inhibition (Allium cepa [2]): inactive | inhibition at 100 µM (Hordeum vulgare [3]): > 40% | inhibition at 100 µM (Allium cepa [4]): 20% | inhibition at 100 µM (Lactuca sativa [5]): < 20% | Activity (Triticum aestivum [6]): inactive | inhibition at 100 µM (Solanum lycopersicum [7]; 120 h): < 20% | Activity (Solanum lycopersicum [44]): 56% | Activity (Solanum lycopersicum [8]): <20% | Activity (Lepidium sativum [9]): <20% | inhibition at 1 µM (Hordeum vulgare [45]): -71% | inhibition at 100 µM (Solanum lycopersicum [10]): < 20% | Activity (Hordeum vulgare [11]): >40% | inhibition at 0.01 µM (Allium cepa [46]): -45% | inhibition at 100 µM (Allium cepa [12]): < 20% | inhibition at 100 µM (Hordeum vulgare [13]): > 40% | Activity (Allium cepa [14]): 20% | inhibition (Lactuca sativa [15]): inactive | Activity (Lactuca sativa [16]): <20% | Activity (Triticum aestivum [17]): inactive | Activity (Solanum lycopersicum [18]): <20% | Activity (Hordeum vulgare [19]): >40% | Activity (Lactuca sativa [20]): <20% | Activity (Hordeum vulgare [21]): >40% | Activity (Solanum lycopersicum [22]): >40% | Activity (Lactuca sativa [23]): inactive | inhibition at 100 µM (Lactuca sativa [24]; 120 h): < 20% | inhibition (Triticum aestivum [26]): inactive | Activity (Lactuca sativa [27]): inactive | inhibition (Lactuca sativa [28]): inactive | inhibition (Lepidium sativum [29]): inactive | Activity (Lepidium sativum [30]): <20% | inhibition at 100 µM (Lactuca sativa [31]; 120 h): < 20% | inhibition at 100 µM (Hordeum vulgare [32]): > 40% | Activity (Allium cepa [33]): <20% | Activity (Lactuca sativa [34]): <20% | inhibition at 100 µM (Lepidium sativum [35]): < 20% | Activity (Allium cepa [36]): inactive | inhibition (Triticum aestivum [37]): inactive | Activity (Triticum aestivum [38]): inactive | inhibition (Triticum aestivum [39]): inactive | inhibition at 100 µM (Lepidium sativum [40]): < 20% | inhibition at 100 µM (Solanum lycopersicum [41]): > 40% | Activity (Lactuca sativa [42]): inactive | Activity (Lepidium sativum [43]): inactive
